Measurements reported in patent US9884048B2, “ERK inhibitors” (Merck Sharp & Dohme Corp., priority 2014, dated 2018).
pIC50: −log10 of the molar value.

What follows are compounds tested against phosphorylated active hERK2 enzyme (Homo sapiens (Human), UniProt P28482). Conditions: not given.
phosphorylated active hERK2 enzyme, sequence (P28482 whole entry): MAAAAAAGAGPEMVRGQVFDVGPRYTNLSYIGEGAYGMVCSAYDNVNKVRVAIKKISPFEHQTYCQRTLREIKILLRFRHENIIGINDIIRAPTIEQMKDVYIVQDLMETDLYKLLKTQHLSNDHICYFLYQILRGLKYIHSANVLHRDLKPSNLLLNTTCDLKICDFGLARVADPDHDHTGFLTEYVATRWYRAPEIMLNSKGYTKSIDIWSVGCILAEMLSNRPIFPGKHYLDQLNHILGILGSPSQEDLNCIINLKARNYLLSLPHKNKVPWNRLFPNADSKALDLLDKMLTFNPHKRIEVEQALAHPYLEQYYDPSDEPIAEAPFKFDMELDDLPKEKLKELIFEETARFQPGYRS

| pIC50 | SMILES |
| --- | --- |
| 8.10 | Cc1cc(-n2ncc3cc(NC(=O)N[C@H]4CCC[C@H]4c4ccccc4)ncc32)ccn1 (racemic) [Example 148, Racemic 1-[1-(2-methylpyridin-4-yl)-1H-pyrazolo[3,4-c]pyridin-5-yl]-3-[(1S,2S) and (1R, 2R)-2-phenylcyclopentyl]urea] |
| 8.13 | Cc1cc(-n2ncc3cc(NC(=O)N[C@H]4CCC[C@@H]4c4ccccc4)ncc32)ccn1 (racemic) [Example 168, Racemic trans 1-[1-(2-methylpyridin-4-yl)-1H-pyrazolo[3,4-c]pyridin-5-yl]-3-[(1S,2R) and (1R,2S)-2-phenylcyclopentyl]urea] |
| 8.51 | Cc1cc(-n2ncc3cc(NC(=O)N[C@H]4CN(C)C[C@@H]4c4cccc(F)c4)ncc32)ccn1 [Example 19, 1-[(3R,4S)-4-(3-fluorophenyl)-1-methylpyrrolidin-3-yl]-3-[1-(2-methylpyridin-4-yl)-1H-pyrazolo[3,4-c]pyridin-5-yl)urea] |
| 6.75 | CCO[C@H]1CCCC[C@@H]1NC(=O)Nc1cc2cnn(-c3ccnc(C)c3)c2cn1 (racemic) [Example 146, Racemic 1-[(1S,2S) and (1R,2R)-2-ethoxycyclohexyl]-3-[1-(2-methylpyridin-4-yl)-1H-pyrazolo[3,4-c]pyridin-5-yl]urea] |

Same assay, conditions: read-out: ERK2 IC50; IMAP-FP assay; 0.5 nM hERK2, 30 μM ATP; 10 point titration, 3 μM starting concentration

| SMILES | pIC50 |
| --- | --- |
| COC[C@H](NC(=O)Nc1cc2cnn(-c3ccnc(C)c3)c2cn1)c1ccccn1 [Example 209, 1-[(1R)-2-methoxy-1-pyridin-2-ylethyl]-3-[1-(2-methylpyridin-4-yl)-1H-pyrazolo[3,4-c]pyridin-5-yl]urea] | 7.61 |
| CC(=O)NCc1nc(NC(=O)N[C@H](C)c2ccccc2)cc2cnn(-c3ccc(F)cc3)c12 [Example 325, N-{[1-(4-fluorophenyl)-5-({[(1R)-1-phenylethyl]carbamoyl}amino)-1H-pyrazolo[3,4-c]pyridin-7-yl]methyl}acetamide] | 6.54 |
| Cc1cc(-n2ncc3cc(NC(=O)N[C@H]4CN(C(C)C)C[C@@H]4c4ccccc4)ncc32)ccn1 [Example 198, 1-[(3R,4S)-1-(1-methylethyl)-4-phenylpyrrolidin-3-yl]-3-[1-(2-methylpyridin-4-yl)-1H-pyrazolo[3,4-c]pyridin-5-yl]urea] | 8.58 |
| C[C@@H](NC(=O)Nc1cc2cnn(-c3cnn(C)c3)c2cn1)c1cccc(Cl)c1 [Example 217, 1-[(1R)-1-(3-chlorophenyl)ethyl]-3-[1-(1-methyl-1H-pyrazol-4-yl)-1H-pyrazolo[3,4-c]pyridin-5-yl]urea] | 8.26 |
| O=C(NCc1ccccc1)Nc1cc2cnn(-c3ccncc3)c2cn1 [Example 2, 1-benzyl-3-(1-pyridin-4-yl-1H-pyrazolo[3,4-c]pyridin-5-yl)urea] | 8.57 |
| C[C@@H](NC(=O)Nc1cc2cnn(CC3CCC3)c2c(CO)n1)c1ccccc1 [Example 304, 1-[1-(cyclobutylmethyl)-7-(hydroxymethyl)-1H-pyrazolo[3,4-c]pyridin-5-yl]-3-[(1R)-1-phenylethyl]urea] | 6.64 |
| Cc1cc(-n2ncc3cc(NC(=O)NCc4cn(C)cn4)ncc32)ccn1 [Example 108, 1-[(1-methyl-1H-imidazol-4-yl)methyl]-3-[1-(2-methylpyridin-4-yl)-1H-pyrazolo[3,4-c]pyridin-5-yl)urea] | 6.55 |
| CCNC(=O)[C@@H](NC(=O)Nc1cc2cnn(-c3ccnc(C)c3)c2cn1)c1ccccc1 [Example 141, (2S)-N-ethyl-2-({[1-(2-methylpyridin-4-yl)-1H-pyrazolo[3,4-c]pyridin-5-yl]carbamoyl}amino)-2-phenylethanamide] | 8.59 |
| Cc1cc(-n2ncc3cc(NC(=O)N[C@@H]4CN(C)C5(COC5)[C@H]4c4ccccc4)ncc32)ccn1 [Example 201, 1-[(7S,8S)-5-methyl-8-phenyl-2-oxa-5-azaspiro[3.4]oct-7-yl]-3-[1-(2-methylpyridin-4-yl)-1H-pyrazolo[3,4-c]pyridin-5-yl]urea] | 9.16 |
| C[C@@H](NC(=O)Nc1cc2cnn(-c3ccc(F)cc3)c2cn1)c1ccccn1 [Example 222, 1-[1-(4-fluorophenyl)-1H-pyrazolo[3,4-c]pyridin-5-yl]-3-[(1R)-1-pyridin-2-ylethyl]urea] | 8.12 |
| Cc1cc(-n2ncc3cc(NC(=O)N[C@H]4CN(C)C[C@@H]4c4cc(C)on4)ncc32)ccn1 [Example 150, 1-[(3R,4S)-1-methyl-4-(5-methylisoxazol-3-yl)pyrrolidin-3-yl]-3-[1-(2-methylpyridin-4-yl)-1H-pyrazolo[3,4-c]pyridin-5-yl]urea] | 7.49 |
| O=C(NCc1ccc(F)cc1)Nc1cc2cnn(-c3ccncc3)c2cn1 [Example 6, 1-(4-fluorobenzyl)-3-(1-pyridin-4-yl-1H-pyrazolo[3,4-c]pyridin-5-yl)urea] | 8.74 |
| O=C(NCc1ccc(Cl)cc1Cl)Nc1cc2cnn(-c3ccncc3)c2cn1 [Example 11, 1-(2,4-dichlorobenzyl)-3-(1-pyridin-4-yl-1H-pyrazolo[3,4-c]pyridin-5-yl)urea] | 7.59 |
| Cc1cc(-n2ncc3cc(NC(=O)N[C@H]4CNC[C@@H]4Oc4ccccc4)ncc32)ccn1 [Example 157, 1-[1-(2-methylpyridin-4-yl)-1H-pyrazolo[3,4-c]pyridin-5-yl]-3-[(3S,4S)-4-phenoxypyrrolidin-3-yl)urea] | 7.45 |
| C[C@@H](NC(=O)Nc1cc2cnn(CC(F)(F)F)c2c(CO)n1)c1ccccc1 [Example 314, 1-[7-(hydroxymethyl)-1-(2,2,2-trifluoroethyl)-1H-pyrazolo[3,4-c]pyridin-5-yl]-3-[(1R)-1-phenylethyl]urea] | 6.76 |
| Cc1cc(-n2ncc3cc(NC(=O)N[C@H]4CCN(Cc5c(F)cccc5F)C4)ncc32)ccn1 [Example 282, 1-[(3S)-1-(2,6-difluorobenzyl)pyrrolidin-3-yl]-3-[1-(2-methylpyridin-4-yl)-1H-pyrazolo[3,4-c]pyridin-5-yl]urea] | 6.77 |
| CCn1ncc2cc(NC(=O)N[C@H](C)c3ccccc3)nc(OC)c21 [Example 256, 1-(1-ethyl-7-methoxy-1H-pyrazolo[3,4-c]pyridin-5-yl)-3-[(1R)-1-phenylethyl]urea] | 7.00 |
| COCCn1ncc2cc(NC(=O)N[C@H](C)c3ccccc3)nc(CO)c21 [Example 312, 1-[7-(hydroxymethyl)-1-(2-methoxyethyl)-1H-pyrazolo[3,4-c]pyridin-5-yl]-3-[(1R)-1-phenylethyl]urea] | 6.53 |
| Cc1cncc(-n2ncc3cc(NC(=O)N[C@H](C)c4ccccc4)ncc32)n1 [Example 211, 1-[1-(6-methylpyrazin-2-yl)-1H-pyrazolo[3,4-c]pyridin-5-yl]-3-[(1R)-1-phenylethyl]urea] | 6.26 |

Next, values leading:

| pIC50 | SMILES |
| --- | --- |
| 9.55 | Cc1cc(-n2ncc3cc(NC(=O)N[C@H]4CN(C)C[C@@H]4c4ccccc4C)ncc32)ccn1 [Example 180, 1-[(3R,4S)-1-methyl-4-(2-methylphenyl)pyrrolidin-3-yl]-3-[1-(2-methylpyridin-4-yl)-1H-pyrazolo[3,4-c]pyridin-5-yl]urea] |
| 6.60 | CO[C@@H]1CN(Cc2cccnc2)C[C@H]1NC(=O)Nc1cc2cnn(-c3ccnc(C)c3)c2cn1 [Example 262, 1-((3R,4R)-4-methoxy-1-(pyridin-3-ylmethyl)pyrrolidin-3-yl)-3-(1-(2-methylpyridin-4-yl)-1H-pyrazolo[3,4-c]pyridin-5-yl)urea] |
| 6.36 | C=CC(=O)NCc1nc(NC(=O)N[C@H](C)c2ccccc2)cc2cnn(C)c12 [Example 324, N-{[1-Methyl-5-({[(1R)-1-phenylethyl]carbamoyl}amino)-1H-pyrazolo[3,4-c]pyridin-7-yl]methyl}prop-2-enamide] |
| 7.22 | C[C@@H](NC(=O)Nc1cc2cnn(C)c2c(CO)n1)c1ccccc1 [Example 298, (R)-1-(7-(Hydroxymethyl)-1-methyl-1H-pyrazolo[3,4-c]pyridin-5-yl)-3-(1-phenylethyl)urea] |
| 8.67 | Cc1cc(-n2ncc3cc(NC(=O)N[C@H]4CN(C)C[C@@H]4c4ccc(F)c(Cl)c4)ncc32)ccn1 [Example 18, 1-[(3R,4S)-4-(3-chloro-4-fluorophenyl)-1-methylpyrrolidin-3-yl]-3-[1-(2-methylpyridin-4-yl)-1H-pyrazolo[3,4-c]pyridin-5-yl)urea] |
| 9.35 | Cc1cc(-n2ncc3cc(NC(=O)NCc4cccc(NS(C)(=O)=O)c4)ncc32)ccn1 [Example 32, N-{3-[({[1-(2-methylpyridin-4-yl)-1H-pyrazolo[3,4-c]pyridin-5-yl]carbamoyl}amino)methyl]phenyl}methanesulfonamide] |
| 7.71 | O=C(Nc1cc2cnn(-c3ccncc3)c2cn1)N[C@@H](c1ccccc1)C(F)(F)F [Example 38, 1-(1-pyridin-4-yl-1H-pyrazolo[3,4-c]pyridin-5-yl)-3-[(1S)-2,2,2-trifluoro-1-phenylethyl]urea] |
| 7.09 | COCCNC(=O)Nc1cc2cnn(-c3ccnc(C)c3)c2cn1 [Example 111, 1-(2-methoxyethyl)-3-[1-(2-methylpyridin-4-yl)-1H-pyrazolo[3,4-c]pyridin-5-yl)urea] |
| 9.48 | Cn1cc2cc(-n3ncc4cc(NC(=O)N[C@@H](c5ccccc5)C(C)(C)O)ncc43)ccc2n1 [Example 207, 1-[(1S)-2-hydroxy-2-methyl-1-phenylpropyl]-3[-1-(2-methyl-2H-indazol-5-yl)-1H-pyrazolo[3,4-c]pyridin-5-yl]urea] |
| 8.15 | Cc1cc(-n2ncc3cc(NC(=O)N[C@H]4CN(C)C[C@@H]4c4sccc4C)ncc32)ccn1 [Example 113, 1-[(3R,4S)-1-methyl-4-(3-methylthiophen-2-yl)pyrrolidin-3-yl]-3-[1-(2-methylpyridin-4-yl)-1H-pyrazolo[3,4-c]pyridin-5-yl)urea] |
| 7.45 | Cc1cc(-n2ncc3cc(NC(=O)N[C@@H]4[C@@H](C)N(C)C[C@H]4c4ccccc4C)ncc32)ccn1 [Example 104, 1-[(2R,3S,4R)-1,2-dimethyl-4-(2-methyl-phenyl)pyrrolidin-3-yl]-3-[1-(2-methylpyridin-4-yl)-1H-pyrazolo[3,4-c]pyridin-5-yl]urea] |
| 8.57 | Cc1cc(-n2ncc3cc(NC(=O)NC(CCN(C)C)c4ccccc4)ncc32)ccn1 (centres unmarked) [Example 51, 1-[3-(dimethylamino)-1-phenylpropyl]-3-[1-(2-methylpyridin-4-yl)-1H-pyrazolo[3,4-c]pyridin-5-yl)urea] |
